Experimental data from ChEMBL document CHEMBL4507293 (2021).

What was measured:
[1] = target: Tyrosine-protein kinase ABL1 (Homo sapiens) (UniProt P00519); details: Compound concentration 100.0 nM
[2] = target: 5'-AMP-activated protein kinase catalytic subunit alpha-1 (Homo sapiens) (UniProt Q13131); details: Compound concentration 100.0 nM
[3] = target: BMP-2-inducible protein kinase (Homo sapiens) (UniProt Q9NSY1); details: Compound concentration 100.0 nM
[4] = target: Macrophage colony-stimulating factor 1 receptor (Homo sapiens) (UniProt P07333); details: Compound concentration 100.0 nM
[5] = target: Serine/threonine-protein kinase DCLK2 (Homo sapiens) (UniProt Q8N568); details: Compound concentration 100.0 nM
[6] = target: Eukaryotic translation initiation factor 2-alpha kinase 1 (Homo sapiens) (UniProt Q9BQI3); details: Compound concentration 100.0 nM
[7] = target: Ephrin type-A receptor 2 (Homo sapiens) (UniProt P29317); details: Compound concentration 100.0 nM
[8] = target: Ephrin type-A receptor 5 (Homo sapiens) (UniProt P54756); details: Compound concentration 100.0 nM
[9] = target: Ephrin type-B receptor 6 (Homo sapiens) (UniProt O15197); details: Compound concentration 100.0 nM
[10] = target: Mitogen-activated protein kinase 1 (Homo sapiens) (UniProt P28482); details: Compound concentration 100.0 nM
[11] = test system: Receptor-type tyrosine-protein kinase FLT3 (Homo sapiens), P36888 [D835H]; details: Compound concentration 100.0 nM
[12] = target: Hormonally up-regulated neu tumor-associated kinase (Homo sapiens) (UniProt P57058); details: Compound concentration 100.0 nM
[13] = target: Tyrosine-protein kinase JAK3 (Homo sapiens) (UniProt P52333); details: Compound concentration 100.0 nM
[14] = test system: Mast/stem cell growth factor receptor Kit (Homo sapiens), P10721 [L576P]; details: Compound concentration 100.0 nM
[15] = target: Serine/threonine-protein kinase Nek4 (Homo sapiens) (UniProt P51957); details: Compound concentration 100.0 nM
[16] = test system: Phosphatidylinositol 4,5-bisphosphate 3-kinase catalytic subunit alpha isoform (Homo sapiens), P42336 [E545A]; details: Compound concentration 100.0 nM
[17] = target: Protein-tyrosine kinase 2-beta (Homo sapiens) (UniProt Q14289); details: Compound concentration 100.0 nM
[18] = target: Serine/threonine-protein kinase RIO1 (Homo sapiens) (UniProt Q9BRS2); details: Compound concentration 100.0 nM
[19] = target: Serine/threonine-protein kinase RIO3 (Homo sapiens) (UniProt O14730); details: Compound concentration 100.0 nM
[20] = target: Ribosomal protein S6 kinase alpha-3 (Homo sapiens) (UniProt P51812); details: Compound concentration 100.0 nM
[21] = target: STE20/SPS1-related proline-alanine-rich protein kinase (Homo sapiens) (UniProt Q9UEW8); details: Compound concentration 100.0 nM
[22] = target: Serine/threonine-protein kinase TBK1 (Homo sapiens) (UniProt Q9UHD2); details: Compound concentration 100.0 nM
[23] = target: TGF-beta receptor type-2 (Homo sapiens) (UniProt P37173); details: Compound concentration 100.0 nM
[24] = target: High affinity nerve growth factor receptor (Homo sapiens) (UniProt P04629); details: Compound concentration 100.0 nM
[25] = target: Vascular endothelial growth factor receptor 2 (Homo sapiens) (UniProt P35968); details: Compound concentration 100.0 nM
[26] = target: 5-hydroxytryptamine receptor 6 (Homo sapiens) (UniProt P50406); details: Compound concentration 10.0 uM
[27] = target: 5-hydroxytryptamine receptor 7 (Homo sapiens, UniProt P34969); details: Compound concentration 10.0 uM
[28] = target: D(4) dopamine receptor (Homo sapiens) (UniProt P21917); details: Compound concentration 10.0 uM
[29] = target: Mu-type opioid receptor (Homo sapiens) (UniProt P35372); details: Compound concentration 10.0 uM
[30] = target: Sigma non-opioid intracellular receptor 1 (Homo sapiens) (UniProt Q99720); details: Compound concentration 10.0 uM
[31] = species on record: Rattus norvegicus; test: Inhibition of Glutamate, NMDA, Phencyclidine at 10 µM in the Eurofins-Panlabs radioligand binding assay (Eurofins_assay_233000); format: protein-complex assay; details: Compound concentration 10.0 uM
[32] = target: Neuropeptide Y receptor type 1 (Homo sapiens) (UniProt P25929); test: Inhibition of Neuropeptide Y Y1 at 10 µM in the Eurofins-Panlabs radioligand binding assay (Eurofins_assay_257010); details: Compound concentration 10.0 uM
[33] = target: ATP-sensitive inward rectifier potassium channel 11 (Cricetulus griseus) (UniProt A0A3L7HHE1); test: Inhibition of Potassium Channel [KATP] at 10 µM in the Eurofins-Panlabs radioligand binding assay (Eurofins_assay_265600); details: Cricetinae; Compound concentration 10.0 uM
[34] = target: 5-hydroxytryptamine receptor 3A (Homo sapiens) (UniProt P46098); test: Inhibition of Serotonin (5-Hydroxytryptamine) 5-HT3 at 10 µM in the Eurofins-Panlabs radioligand binding assay (Eurofins_assay_271910); parameters: ligand concentration 0.69 nM; details: Compound concentration 10.0 uM
[35] = target: Substance-K receptor (Homo sapiens) (UniProt P21452); test: Inhibition of Tachykinin NK2 at 10 µM in the Eurofins-Panlabs radioligand binding assay (Eurofins_assay_255600); parameters: ligand concentration 0.5 nM; details: Compound concentration 10.0 uM
[36] = target: Beta-2 adrenergic receptor (Homo sapiens) (UniProt P07550); details: Compound concentration 10.0 uM
[37] = target: Endothelin receptor type B (Homo sapiens) (UniProt P24530); details: Compound concentration 10.0 uM
[38] = target: Estrogen receptor (Homo sapiens) (UniProt P03372); details: Compound concentration 10.0 uM
[39] = target: Sodium-dependent noradrenaline transporter (Homo sapiens) (UniProt P23975); details: Compound concentration 10.0 uM
[40] = target: GABA-A receptor; anion channel (Rattus norvegicus) (UniProt O09028+P15431+P18506+P18508+P19969+P20236+P23574+P23576+P28471+P28473+P30191+P62813+P63079+P63138+Q91ZM7+Q9ES14); details: Compound concentration 10.0 uM
[41] = target: Gamma-aminobutyric acid type B receptor subunit 1 (Homo sapiens) (UniProt Q9UBS5); details: Rattus norvegicus; Compound concentration 10.0 uM

High affinity nerve growth factor receptor (Homo sapiens), sequence (P04629 33-796 limits assumed): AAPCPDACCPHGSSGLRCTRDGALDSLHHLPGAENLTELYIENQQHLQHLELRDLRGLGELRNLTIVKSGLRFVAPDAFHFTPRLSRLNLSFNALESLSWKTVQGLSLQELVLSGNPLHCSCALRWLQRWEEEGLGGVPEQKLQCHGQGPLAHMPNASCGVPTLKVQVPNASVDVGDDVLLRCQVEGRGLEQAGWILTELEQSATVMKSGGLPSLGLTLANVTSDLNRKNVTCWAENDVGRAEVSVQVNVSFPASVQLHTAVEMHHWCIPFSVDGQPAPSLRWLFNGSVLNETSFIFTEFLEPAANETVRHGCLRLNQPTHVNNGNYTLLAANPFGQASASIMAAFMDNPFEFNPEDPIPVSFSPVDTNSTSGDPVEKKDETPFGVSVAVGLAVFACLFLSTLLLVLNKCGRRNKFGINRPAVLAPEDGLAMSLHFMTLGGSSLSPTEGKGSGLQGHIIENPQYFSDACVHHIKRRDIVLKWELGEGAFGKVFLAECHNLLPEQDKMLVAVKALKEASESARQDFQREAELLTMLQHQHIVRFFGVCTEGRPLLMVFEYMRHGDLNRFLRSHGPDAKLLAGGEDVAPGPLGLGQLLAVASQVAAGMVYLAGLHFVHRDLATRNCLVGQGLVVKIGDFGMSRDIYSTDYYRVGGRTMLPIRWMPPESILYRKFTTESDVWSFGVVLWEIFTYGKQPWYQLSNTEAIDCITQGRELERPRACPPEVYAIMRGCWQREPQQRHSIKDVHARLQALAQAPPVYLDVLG
Macrophage colony-stimulating factor 1 receptor (Homo sapiens), sequence (P07333 whole entry): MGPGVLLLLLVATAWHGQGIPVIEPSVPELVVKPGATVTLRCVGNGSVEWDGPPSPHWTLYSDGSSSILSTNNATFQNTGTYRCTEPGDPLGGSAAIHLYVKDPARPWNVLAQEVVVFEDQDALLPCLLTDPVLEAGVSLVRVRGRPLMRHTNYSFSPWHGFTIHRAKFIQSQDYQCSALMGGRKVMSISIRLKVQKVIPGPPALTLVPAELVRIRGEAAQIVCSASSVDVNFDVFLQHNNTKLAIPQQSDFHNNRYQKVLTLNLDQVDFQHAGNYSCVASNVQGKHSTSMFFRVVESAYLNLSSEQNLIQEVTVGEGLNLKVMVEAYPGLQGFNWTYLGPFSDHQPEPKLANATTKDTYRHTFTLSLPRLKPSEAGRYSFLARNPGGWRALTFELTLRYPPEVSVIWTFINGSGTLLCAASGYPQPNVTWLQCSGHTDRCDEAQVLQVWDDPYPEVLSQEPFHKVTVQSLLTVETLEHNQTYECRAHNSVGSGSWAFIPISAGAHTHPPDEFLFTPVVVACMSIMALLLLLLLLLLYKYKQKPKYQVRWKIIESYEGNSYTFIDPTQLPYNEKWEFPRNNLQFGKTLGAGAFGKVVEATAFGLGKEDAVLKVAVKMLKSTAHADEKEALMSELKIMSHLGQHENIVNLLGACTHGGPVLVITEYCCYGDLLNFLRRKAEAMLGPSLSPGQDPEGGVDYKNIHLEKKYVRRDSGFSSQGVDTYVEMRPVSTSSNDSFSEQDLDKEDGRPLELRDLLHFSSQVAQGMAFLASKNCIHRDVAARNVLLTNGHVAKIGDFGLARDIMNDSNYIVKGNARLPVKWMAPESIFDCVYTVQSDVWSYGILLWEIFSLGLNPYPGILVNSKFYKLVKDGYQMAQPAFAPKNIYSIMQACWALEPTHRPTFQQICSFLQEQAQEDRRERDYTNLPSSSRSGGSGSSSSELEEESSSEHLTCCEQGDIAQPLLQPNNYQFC
D(4) dopamine receptor (Homo sapiens), sequence (P21917 whole entry): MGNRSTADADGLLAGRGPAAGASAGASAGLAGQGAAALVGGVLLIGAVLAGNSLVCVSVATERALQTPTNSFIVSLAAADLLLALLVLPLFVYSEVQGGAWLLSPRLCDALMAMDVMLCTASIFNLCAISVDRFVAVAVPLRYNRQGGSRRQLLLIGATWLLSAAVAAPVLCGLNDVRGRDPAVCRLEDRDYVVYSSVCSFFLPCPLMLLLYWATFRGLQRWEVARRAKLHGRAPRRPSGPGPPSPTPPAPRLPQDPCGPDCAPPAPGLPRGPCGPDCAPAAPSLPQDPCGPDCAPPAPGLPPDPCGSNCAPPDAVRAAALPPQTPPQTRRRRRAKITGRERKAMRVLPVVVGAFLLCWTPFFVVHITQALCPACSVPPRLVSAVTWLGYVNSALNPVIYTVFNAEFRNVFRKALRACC
Serine/threonine-protein kinase RIO1 (Homo sapiens), sequence (Q9BRS2 whole entry): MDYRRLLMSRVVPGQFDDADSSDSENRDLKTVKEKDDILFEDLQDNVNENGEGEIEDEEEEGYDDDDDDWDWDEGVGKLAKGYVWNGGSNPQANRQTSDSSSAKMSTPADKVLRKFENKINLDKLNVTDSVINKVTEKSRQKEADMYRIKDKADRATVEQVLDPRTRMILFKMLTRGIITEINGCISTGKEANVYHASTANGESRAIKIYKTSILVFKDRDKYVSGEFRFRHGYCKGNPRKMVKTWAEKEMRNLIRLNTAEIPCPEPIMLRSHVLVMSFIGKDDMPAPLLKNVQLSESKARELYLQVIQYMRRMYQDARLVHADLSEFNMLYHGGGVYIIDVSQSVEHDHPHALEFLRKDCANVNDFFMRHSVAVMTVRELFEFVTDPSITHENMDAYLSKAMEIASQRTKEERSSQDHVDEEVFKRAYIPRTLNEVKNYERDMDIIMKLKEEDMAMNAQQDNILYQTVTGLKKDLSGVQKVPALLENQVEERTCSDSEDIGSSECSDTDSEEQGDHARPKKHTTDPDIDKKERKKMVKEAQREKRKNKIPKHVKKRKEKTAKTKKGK
Serine/threonine-protein kinase Nek4 (Homo sapiens), sequence (P51957 whole entry, looked up, canonical isoform): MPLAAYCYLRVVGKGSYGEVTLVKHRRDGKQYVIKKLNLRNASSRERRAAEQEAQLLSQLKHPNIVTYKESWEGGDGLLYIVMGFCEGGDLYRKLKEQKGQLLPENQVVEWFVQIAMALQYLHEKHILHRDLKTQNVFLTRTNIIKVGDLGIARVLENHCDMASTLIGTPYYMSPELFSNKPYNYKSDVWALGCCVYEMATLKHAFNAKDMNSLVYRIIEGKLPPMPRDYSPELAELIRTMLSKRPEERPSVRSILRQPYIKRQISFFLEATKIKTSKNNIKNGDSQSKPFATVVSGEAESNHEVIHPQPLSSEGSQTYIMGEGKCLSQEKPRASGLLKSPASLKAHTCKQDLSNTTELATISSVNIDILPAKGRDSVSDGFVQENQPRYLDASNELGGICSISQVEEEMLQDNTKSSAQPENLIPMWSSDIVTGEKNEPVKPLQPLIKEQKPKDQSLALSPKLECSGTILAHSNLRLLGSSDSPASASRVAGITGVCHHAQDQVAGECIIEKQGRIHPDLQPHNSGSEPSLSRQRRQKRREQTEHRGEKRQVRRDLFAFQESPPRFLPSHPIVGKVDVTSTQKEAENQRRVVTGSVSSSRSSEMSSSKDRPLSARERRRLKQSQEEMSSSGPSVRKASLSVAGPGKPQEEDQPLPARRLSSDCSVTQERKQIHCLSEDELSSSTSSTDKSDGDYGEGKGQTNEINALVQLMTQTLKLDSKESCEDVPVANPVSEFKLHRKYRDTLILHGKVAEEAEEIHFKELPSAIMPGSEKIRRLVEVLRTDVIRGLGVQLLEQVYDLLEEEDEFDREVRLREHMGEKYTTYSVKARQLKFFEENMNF
Serine/threonine-protein kinase TBK1 (Homo sapiens), sequence (Q9UHD2 whole entry): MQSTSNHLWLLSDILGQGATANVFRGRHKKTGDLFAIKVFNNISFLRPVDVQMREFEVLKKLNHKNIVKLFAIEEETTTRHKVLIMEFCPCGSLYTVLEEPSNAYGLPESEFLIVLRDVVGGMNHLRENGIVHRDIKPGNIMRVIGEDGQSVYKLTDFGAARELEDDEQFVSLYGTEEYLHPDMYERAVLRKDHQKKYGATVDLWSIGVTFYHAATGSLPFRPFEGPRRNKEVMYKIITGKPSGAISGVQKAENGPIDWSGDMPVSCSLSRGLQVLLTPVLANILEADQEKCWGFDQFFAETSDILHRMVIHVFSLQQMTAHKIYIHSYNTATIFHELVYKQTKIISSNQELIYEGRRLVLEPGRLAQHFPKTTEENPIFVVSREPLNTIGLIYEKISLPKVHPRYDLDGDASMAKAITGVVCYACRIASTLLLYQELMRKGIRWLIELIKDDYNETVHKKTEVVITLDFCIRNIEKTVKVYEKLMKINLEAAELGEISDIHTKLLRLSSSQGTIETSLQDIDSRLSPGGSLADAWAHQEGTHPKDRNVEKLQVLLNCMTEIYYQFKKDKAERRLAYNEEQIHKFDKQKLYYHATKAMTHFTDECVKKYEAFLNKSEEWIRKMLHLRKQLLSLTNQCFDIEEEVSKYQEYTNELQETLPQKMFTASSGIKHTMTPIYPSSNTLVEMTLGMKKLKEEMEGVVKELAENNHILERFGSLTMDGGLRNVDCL
Serine/threonine-protein kinase RIO3 (Homo sapiens), sequence (O14730 whole entry): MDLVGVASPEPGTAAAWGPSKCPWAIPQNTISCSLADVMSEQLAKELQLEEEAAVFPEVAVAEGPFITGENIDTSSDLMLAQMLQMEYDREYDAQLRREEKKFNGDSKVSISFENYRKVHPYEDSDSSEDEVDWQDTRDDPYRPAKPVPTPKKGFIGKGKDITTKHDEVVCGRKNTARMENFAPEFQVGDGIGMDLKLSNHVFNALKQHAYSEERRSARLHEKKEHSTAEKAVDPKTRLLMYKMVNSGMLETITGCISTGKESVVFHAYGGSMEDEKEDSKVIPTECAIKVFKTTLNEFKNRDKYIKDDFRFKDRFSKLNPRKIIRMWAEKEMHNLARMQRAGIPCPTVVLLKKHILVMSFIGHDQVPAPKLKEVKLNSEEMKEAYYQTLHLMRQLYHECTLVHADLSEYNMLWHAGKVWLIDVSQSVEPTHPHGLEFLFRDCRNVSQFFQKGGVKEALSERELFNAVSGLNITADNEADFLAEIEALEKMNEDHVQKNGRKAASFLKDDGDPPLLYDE
Sigma non-opioid intracellular receptor 1 (Homo sapiens), sequence (Q99720 whole entry): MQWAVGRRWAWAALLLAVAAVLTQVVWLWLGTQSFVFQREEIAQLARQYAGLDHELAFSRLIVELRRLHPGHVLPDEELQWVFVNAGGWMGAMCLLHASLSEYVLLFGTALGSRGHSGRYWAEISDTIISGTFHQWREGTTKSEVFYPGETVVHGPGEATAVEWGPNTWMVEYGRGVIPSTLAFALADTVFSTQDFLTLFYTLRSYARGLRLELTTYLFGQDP

## CC(C)CC(=O)N1CCc2nc(-c3ccc(Br)cc3)nc(N(C)Cc3ccccc3)c2C1 [THPP-1-NC]
[1]
  residual activity: 58%
[2]
  residual activity: 100%
[3]
  residual activity: 99%
[4]
  residual activity: 100%
[5]
  residual activity: 100%
[6]
  residual activity: 100%
[7]
  residual activity: 100%
[8]
  residual activity: 89%
[9]
  residual activity: 91%
[10]
  residual activity: 93%
[11]
  residual activity: 100%
[12]
  residual activity: 86%
[13]
  residual activity: 98%
[14]
  residual activity: 94%
[15]
  residual activity: 100%
[16]
  residual activity: 100%
[17]
  residual activity: 100%
[18]
  residual activity: 98%
[19]
  residual activity: 100%
[20]
  residual activity: 67%
[21]
  residual activity: 100%
[22]
  residual activity: 75%
[23]
  residual activity: 97%
[24]
  residual activity: 100%
[25]
  residual activity: 100%
[26]
  inhibition: 0.81%
[27]
  inhibition: 64.5%
[28]
  inhibition: 7.93%
[29]
  inhibition: -0.75%
[30]
  inhibition: 49.4%

## COCCOc1nc(-c2ccc(Cl)nc2)nc2c1CN(C(=O)c1ncn3ccccc13)CC2 [THPP-1]
[31]
  inhibition: -10%
[32]
  inhibition: 1%
[33]
  inhibition: -4%
[34]
  inhibition: -8%
[35]
  inhibition: 18%
[1]
  residual activity: 60%
[2]
  residual activity: 100%
[3]
  residual activity: 90%
[4]
  residual activity: 100%
[5]
  residual activity: 100%
[6]
  residual activity: 100%
[7]
  residual activity: 100%
[8]
  residual activity: 99%
[9]
  residual activity: 78%
[10]
  residual activity: 95%
[11]
  residual activity: 100%
[12]
  residual activity: 78%
[13]
  residual activity: 93%
[14]
  residual activity: 100%
[15]
  residual activity: 100%
[16]
  residual activity: 100%
[17]
  residual activity: 100%
[18]
  residual activity: 93%
[19]
  residual activity: 100%
[20]
  residual activity: 82%
[21]
  residual activity: 100%
[22]
  residual activity: 68%
[23]
  residual activity: 94%
[24]
  residual activity: 100%
[25]
  residual activity: 100%
[26]
  inhibition: -4.55%
[27]
  inhibition: 42.3%
[28]
  inhibition: 15.7%
[29]
  inhibition: -0.32%
[30]
  inhibition: 38.1%
[36]
  inhibition: -4%
[37]
  inhibition: 0%
[38]
  inhibition: -1%
[39]
  inhibition: 3%
[40]
  inhibition: 4%
[41]
  inhibition: -5%
